# Measurements: patent US20060089378A1 (priority 2004, published 2006)
# Where two headings read alike, the source gives them in different places.
# Tests used:
# Cannabinoid CB1 Receptor = target: T1, Cannabinoid CB1 Receptor (Homo sapiens, UniProt P21554); test: Binding assay for CB1 agonists or inverse agonists (radioligand competition, membranes of transfected SK-N-MC cells); conditions: for inhibition at 0.2 µM: read-out: Cannabinoid CB1 Receptor Binding percent inhibition
# T1 construct: expressed in transfected cells
# Cannabinoid CB2 Receptor = target: T2, Cannabinoid CB2 Receptor (Homo sapiens, UniProt P34972); test: Binding assay for CB2 agonists or inverse agonists (radioligand competition, membranes of transfected SK-N-MC cells); conditions: for inhibition at 0.2 µM: read-out: Cannabinoid CB2 Receptor Binding percent inhibition
# T2 construct: expressed in transfected cells
# CB1 receptor (human) = CB1 receptor (human) (Homo sapiens, UniProt P21554); test: cell-based; conditions: for CB1 Receptor Functional Activity (change in functional activity, CRE β-gal): one compound concentration, β-galactosidase activity relative to vehicle treated cells
# CB2 receptor (human) = target: T3, CB2 receptor (human) (Homo sapiens, UniProt P34972); test: Functional cell-based assay, CB2 receptor mediated change in CRE β-gal expression (adenylate cyclase activity) in SK-N-MC cells
# T3 construct: expressed in transfected cells
# [1] = human CB1, SK-N-MC cell membranes, calculated by linear regression from percent inhibition at various concentrations, read-out: Cannabinoid CB1 Receptor Binding IC50
# [2] = human CB2, SK-N-MC cell membranes, calculated by linear regression from percent inhibition at various concentrations, read-out: Cannabinoid CB2 Receptor Binding IC50
# T1 sequence (P21554 whole entry): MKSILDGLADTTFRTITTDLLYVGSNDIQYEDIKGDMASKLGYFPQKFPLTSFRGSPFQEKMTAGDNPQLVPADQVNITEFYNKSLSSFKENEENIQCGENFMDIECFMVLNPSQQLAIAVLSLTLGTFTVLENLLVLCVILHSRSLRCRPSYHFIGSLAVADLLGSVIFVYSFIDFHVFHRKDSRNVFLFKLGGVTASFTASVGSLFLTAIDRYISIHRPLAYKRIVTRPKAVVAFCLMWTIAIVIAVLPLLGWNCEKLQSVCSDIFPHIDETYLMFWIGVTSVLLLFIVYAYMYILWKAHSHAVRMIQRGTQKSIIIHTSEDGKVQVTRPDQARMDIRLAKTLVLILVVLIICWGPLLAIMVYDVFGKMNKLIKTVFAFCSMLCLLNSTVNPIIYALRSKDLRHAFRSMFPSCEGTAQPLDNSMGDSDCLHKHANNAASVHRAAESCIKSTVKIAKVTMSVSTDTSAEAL
# Chain of CB1 receptor (human) (P21554 whole entry): as above
# T2 sequence (P34972 whole entry): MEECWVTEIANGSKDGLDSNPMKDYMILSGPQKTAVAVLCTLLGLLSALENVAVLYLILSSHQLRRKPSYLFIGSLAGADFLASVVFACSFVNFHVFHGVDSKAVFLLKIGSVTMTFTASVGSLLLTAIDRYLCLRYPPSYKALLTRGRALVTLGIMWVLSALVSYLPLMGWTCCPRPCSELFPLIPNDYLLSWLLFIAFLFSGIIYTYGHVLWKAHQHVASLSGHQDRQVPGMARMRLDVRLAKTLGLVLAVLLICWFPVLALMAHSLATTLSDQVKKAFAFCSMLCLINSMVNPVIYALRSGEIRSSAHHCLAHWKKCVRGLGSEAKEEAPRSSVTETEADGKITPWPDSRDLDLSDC
# T3 sequence (P34972 whole entry): as above
compound,measurement,setting,value
"COC(=O)N1CCc2c(c(C(=O)NC3C4(C)CCC(C4)C3(C)C)nn2Cc2ccccc2)C1 (stereo not drawn) [Cpd 106, 1-benzyl-3-(1,3,3-trimethyl-bicyclo[2.2.1]hept-2-ylcarbamoyl)-1,4,6,7-tetrahydro-pyrazolo[4,3-c]pyridine-5-carboxylic acid methyl ester]",IC50,Cannabinoid CB1 Receptor,200 nM
same,IC50,Cannabinoid CB2 Receptor,2 nM
same,EC50,CB1 receptor (human),8900 nM
same,EC50,CB2 receptor (human),0.8 nM
"CCOC(=O)N1CCc2c(c(C(=O)NC3C4(C)CCC(C4)C3(C)C)nn2Cc2ccccc2)C1 (stereo not drawn) [Cpd 107, 1-benzyl-3-(1,3,3-trimethyl-bicyclo[2.2.1]hept-2-ylcarbamoyl)-1,4,6,7-tetrahydro-pyrazolo[4,3-c]pyridine-5-carboxylic acid ethyl ester]",IC50,Cannabinoid CB1 Receptor,100 nM
same,IC50,Cannabinoid CB2 Receptor,3 nM
same,"CB1 Receptor Functional Activity (change in functional activity, CRE β-gal)",CB1 receptor (human),−6%
same,EC50,CB2 receptor (human),6 nM
"CC(C)(C)OC(=O)N1CCc2c(c(C(=O)NC3C4(C)CCC(C4)C3(C)C)nn2C2CCCCC2)C1 (stereo not drawn) [Cpd 117, 1-cyclohexyl-3-(1,3,3-trimethyl-bicyclo[2.2.1]hept-2-ylcarbamoyl)-1,4,6,7-tetrahydro-pyrazolo[4,3-c]pyridine-5-carboxylic acid tert-butyl ester]",IC50,Cannabinoid CB1 Receptor,11700 nM
same,IC50,Cannabinoid CB2 Receptor,10 nM
same,"CB1 Receptor Functional Activity (change in functional activity, CRE β-gal)",CB1 receptor (human),−10%
same,EC50,"CB2 receptor (human); SK-N-MC cells expressing CRE β-gal and human CB2, forskolin, β-galactosidase activity, varying compound concentrations, read-out: CB2 Receptor Functional Inverse Agonist EC50",90 nM
"COC(=O)N1CCc2c(c(C(=O)NC3C4(C)CCC(C4)C3(C)C)nn2C2CCCCC2)C1 (stereo not drawn) [Cpd 119, 1-cyclohexyl-3-(1,3,3-trimethyl-bicyclo[2.2.1]hept-2-ylcarbamoyl)-1,4,6,7-tetrahydro-pyrazolo[4,3-c]pyridine-5-carboxylic acid methyl ester]",IC50,Cannabinoid CB1 Receptor,200 nM
same,IC50,Cannabinoid CB2 Receptor,90 nM
same,EC50,CB1 receptor (human),200 nM
same,EC50,CB2 receptor (human),20 nM
"CCOC(=O)N1CCc2c(c(C(=O)NC3C4(C)CCC(C4)C3(C)C)nn2C2CCCCC2)C1 (stereo not drawn) [Cpd 120, 1-cyclohexyl-3-(1,3,3-trimethyl-bicyclo[2.2.1]hept-2-ylcarbamoyl)-1,4,6,7-tetrahydro-pyrazolo[4,3-c]pyridine-5-carboxylic acid ethyl ester]",IC50,Cannabinoid CB1 Receptor,500 nM
same,IC50,Cannabinoid CB2 Receptor,20 nM
same,EC50,CB1 receptor (human),20 nM
same,EC50,CB2 receptor (human),50 nM
"CC(=O)N1CCc2c(c(C(=O)NC3C4(C)CCC(C4)C3(C)C)nn2C2CCCCC2)C1 (stereo not drawn) [Cpd 123, 5-acetyl-1-cyclohexyl-4,5,6,7-tetrahydro-1H-pyrazolo[4,3-c]pyridine-3-carboxylic acid (1,3,3-trimethyl-bicyclo[2.2.1]hept-2-yl)-amide]",IC50,Cannabinoid CB1 Receptor,200 nM
same,IC50,Cannabinoid CB2 Receptor,40 nM
same,EC50,CB2 receptor (human),14 nM
"Cc1ccc(S(=O)(=O)N2CCc3c(c(C(=O)NC4C5(C)CCC(C5)C4(C)C)nn3C3CCCCC3)C2)cc1 (stereo not drawn) [Cpd 124, 1-cyclohexyl-5-(toluene-4-sulfonyl)-4,5,6,7-tetrahydro-1H-pyrazolo[4,3-c]pyridine-3-carboxylic acid (1,3,3-trimethyl-bicyclo[2.2.1]hept-2-yl)-amide]",IC50,Cannabinoid CB1 Receptor,1500 nM
same,IC50,Cannabinoid CB2 Receptor,20 nM
same,EC50,CB2 receptor (human),30 nM
"Cc1ccc(S(=O)(=O)N2CCc3c(c(C(=O)NC4C5(C)CCC(C5)C4(C)C)nn3Cc3ccccc3)C2)cc1 (stereo not drawn) [Cpd 125, 1-benzyl-5-(toluene-4-sulfonyl)-4,5,6,7-tetrahydro-1H-pyrazolo[4,3-c]pyridine-3-carboxylic acid (1,3,3-trimethyl-bicyclo[2.2.1]hept-2-yl)-amide]",IC50,Cannabinoid CB1 Receptor; [1],200 nM
same,IC50,Cannabinoid CB2 Receptor,30 nM
same,"CB1 Receptor Functional Activity (change in functional activity, CRE β-gal)",CB1 receptor (human),27%
"CN(C)S(=O)(=O)N1CCc2c(c(C(=O)NC3C4(C)CCC(C4)C3(C)C)nn2C2CCCCC2)C1 (stereo not drawn) [Cpd 127, 1-cyclohexyl-5-dimethylsulfamoyl-4,5,6,7-tetrahydro-1H-pyrazolo[4,3-c]pyridine-3-carboxylic acid (1,3,3-trimethyl-bicyclo[2.2.1]hept-2-yl)-amide]",IC50,Cannabinoid CB1 Receptor,2600 nM
same,IC50,Cannabinoid CB2 Receptor,900 nM
same,"CB1 Receptor Functional Activity (change in functional activity, CRE β-gal)",CB1 receptor (human),28%
"COC(=O)CN1CCc2c(c(C(=O)NC3C4(C)CCC(C4)C3(C)C)nn2C2CCCCC2)C1 (stereo not drawn) [Cpd 128, [1-cyclohexyl-3-(1,3,3-trimethyl-bicyclo[2.2.1]hept-2-ylcarbamoyl)-1,4,6,7-tetrahydro-pyrazolo[4,3-c]pyridin-5-yl]-acetic acid methyl ester]",IC50,Cannabinoid CB1 Receptor; [1],700 nM
same,IC50,Cannabinoid CB2 Receptor; [2],400 nM
same,"CB1 Receptor Functional Activity (change in functional activity, CRE β-gal)",CB1 receptor (human),−7%
"COC(=O)N1CCc2c(c(C(=O)NC3C4CC5CC(C4)CC3C5)nn2C2CCCCC2)C1 (stereo not drawn) [Cpd 131, 3-(adamantan-2-ylcarbamoyl)-1-cyclohexyl-1,4,6,7-tetrahydro-pyrazolo[4,3-c]pyridine-5-carboxylic acid methyl ester]",IC50,Cannabinoid CB1 Receptor; [1],2700 nM
same,IC50,Cannabinoid CB2 Receptor; [2],200 nM
same,"CB1 Receptor Functional Activity (change in functional activity, CRE β-gal)",CB1 receptor (human),−49%
"CN(C)C(=O)N1CCc2c(c(C(=O)NC3C4CC5CC(C4)CC3C5)nn2C2CCCCC2)C1 (stereo not drawn) [Cpd 132, 1-cyclohexyl-1,4,6,7-tetrahydro-pyrazolo[4,3-c]pyridine-3,5-dicarboxylic acid 3-adamantan-2-ylamide 5-dimethylamide]",IC50,Cannabinoid CB1 Receptor; [1],5500 nM
same,IC50,Cannabinoid CB2 Receptor; [2],200 nM
same,"CB1 Receptor Functional Activity (change in functional activity, CRE β-gal)",CB1 receptor (human),−42%
"CC12CCC(C1)C(C)(C)C2NC(=O)c1nn(C2CCCCC2)c2c1CN(S(C)(=O)=O)CC2 (stereo not drawn) [Cpd 133, 1-cyclohexyl-5-methanesulfonyl-4,5,6,7-tetrahydro-1H-pyrazolo[4,3-c]pyridine-3-carboxylic acid (1,3,3-trimethyl-bicyclo[2.2.1]hept-2-yl)-amide]",IC50,Cannabinoid CB1 Receptor,400 nM
same,IC50,Cannabinoid CB2 Receptor,300 nM
same,EC50,CB1 receptor (human),730 nM
same,change in functional activity,"CB2 receptor (human); CB2 section, one compound concentration, relative to vehicle treated cell activity (100%)",−29%
"CC(=O)N1C/C(=C\c2ccc(F)cc2)c2c(c(C(=O)N(C(C)=O)N3CCCCC3)nn2-c2ccc(Cl)cc2Cl)C1 [Cpd 134, (7E)-5-acetyl-1-(2,4-dichloro-phenyl)-7-(4-fluoro-benzylidene)-4,5,6,7-tetrahydro-1H-pyrazolo[4,3-c]pyridine-3-carboxylic acid acetyl-piperidin-1-yl-amide]",inhibition at 0.2 µM,Cannabinoid CB1 Receptor,50%
same,inhibition at 0.2 µM,Cannabinoid CB2 Receptor,26%
same,EC50,CB1 receptor (human),20 nM
"C[C@@H](NC(=O)c1nn(-c2ccc(Cl)cc2Cl)c2c1CN(C(=O)OC(C)(C)C)C/C2=C\c1ccc(F)cc1)c1ccccn1 [Cpd 138, (7E)-1-(2,4-dichloro-phenyl)-7-(4-fluoro-benzylidene)-3-[(1R)-1-pyridin-2-yl-ethylcarbamoyl]-1,4,6,7-tetrahydro-pyrazolo[4,3-c]pyridine-5-carboxylic acid tert-butyl ester]",IC50,Cannabinoid CB1 Receptor,30 nM
same,inhibition at 0.2 µM,Cannabinoid CB2 Receptor,21%
same,EC50,CB1 receptor (human),9 nM
"C[C@@H](NC(=O)c1nn(-c2ccc(Cl)cc2Cl)c2c1CNC/C2=C\c1ccc(F)cc1)c1ccccn1 [Cpd 139, (7E)-1-(2,4-dichloro-phenyl)-7-(4-fluoro-benzylidene)-4,5,6,7-tetrahydro-1H-pyrazolo[4,3-c]pyridine-3-carboxylic acid [(1R)-1-pyridin-2-yl-ethyl]-amide]",IC50,Cannabinoid CB1 Receptor,40 nM
same,inhibition at 0.2 µM,Cannabinoid CB2 Receptor,16%
same,EC50,CB1 receptor (human),30 nM
"C[C@@H](NC(=O)c1nn(-c2ccc(Cl)cc2Cl)c2c1CN(S(C)(=O)=O)C/C2=C\c1ccc(F)cc1)c1ccccn1 [Cpd 140, (7E)-1-(2,4-dichloro-phenyl)-7-(4-fluoro-benzylidene)-5-methanesulfonyl-4,5,6,7-tetrahydro-1H-pyrazolo[4,3-c]pyridine-3-carboxylic acid [(1R)-1-pyridin-2-yl-ethyl]-amide]",inhibition at 0.2 µM,Cannabinoid CB1 Receptor,96%
same,inhibition at 0.2 µM,Cannabinoid CB2 Receptor,9%
same,EC50,CB1 receptor (human),2 nM
"(7E)-1-(4-chloro-phenyl)-5-methanesulfonyl-7-(4-methoxy-benzylidene)-4,5,6,7-tetrahydro-1H-pyrazolo[4,3-c]pyridine-3-carboxylic acid (1-pyridin-2-yl-ethyl)-amide [Cpd 78]",IC50,Cannabinoid CB1 Receptor; [1],7 nM
same,Cannabinoid CB2 Receptor Binding percent inhibition,"Cannabinoid CB2 Receptor; test concentration of 0.2 μM, compounds without an IC50 binding value",17%
same,EC50,"CB1 receptor (human); SK-N-MC cells expressing CRE β-gal and human CB1, forskolin, β-galactosidase activity, varying compound concentrations, read-out: CB1 Receptor Functional Inverse Agonist EC50",3 nM
